Assay results reported in patent US20260125350A1, “CENTROMERE PROTEIN CENP-M SMALL MOLECULE INHIBITOR CENPEMLIN, AND PREPARATION METHOD THEREFOR AND USE THEREOF” (UNIVERSITY OF SCIENCE AND TECHNOLOGY OF CHINA, priority 2022, published 2026).

Tests used:
[1] = test system: liver cancer cells MHCC97-H cells; assay: Liver implantation model of luciferase-stable liver cancer cells in mice, luciferase imaging; type: in vivo, NOD/SCID mice; details: intraperitoneal injection, 11th day of administration; cenpemlin 2 mg/kg
Method: • 1) According to the published experimental protocol (Chen et al., 2011. Cancer Res), we implanted luciferase-stable liver cancer cells MHCC97-H cells (5×10^6 in 0.1 mL saline) into the liver of 6-week-old female NOD/SCID mice. The experiment was divided into three groups, namely the DMSO control group, the paclitaxel group and the cenpemlin group (2 mg/kg), with 10 mice in each group. • 2) After 14 days of modeling (successful modeling of luciferase test), the DMSO control group, the paclitaxel group and the cenpemlin experimental group (2 mg/kg) were intraperitoneally injected (0.2 mL per mouse; 0.1 mL was injected on both sides) […]. • 3) After four injections every other day (the 11th day of administration), the luciferase test was performed.

HeLa cells [2] = assay: Elution (washout) effect, real-time live cell imaging after MG132 and compound treatment; type: cell-based; details: 1 h with MG132 20 μM and compound, then washed out
Method: • 1) Seed HeLa cells into 35 mm live-cell imaging dishes; • 2) transfect plasmid DNA after 24 h: GFP-tubulin and mCherry-H2B (the density of transfected plasmid cells is 70%-80%); • 3) replace with fresh culture medium 6 h after transfection and add MG132 at a final concentration of 20 μM and cenpemlin or DMSO to treat the cells for 1 h; • 4) turn on the Applied Precision Personal DV microscope and the thermostat to stabilize the temperature at 37° C.; • 5) wash the cells three times with PBS prewarmed at 37° C. to release the cells, and then replace with fresh culture medium to continue culturing; • 6) immediately after release, replace the cell culture medium with CO2-independent Medium; • 7) place the cells on the 37° C. thermostat stage of the DV microscope and imaging in real time by a 60×, NA=1.42 lens, taking one frame every 3 min.

[3] = test system: HeLa cells stably expressing GFP-CENP-N; assay: Chromosome alignment phenotype in mitosis, immunofluorescence imaging; type: cell-based; details: 1 μM, 1 h, after thymidine release
Method: • 1) HeLa cells stably expressing GFP-CENP-N were seeded on a round coverslip with a diameter of 12 mm; • 2) after 24 h, Thymidine was added to the cells at a final concentration of 2 mM for 14-16 h; • 3) the cells were washed three times with PBS prewarmed at 37° C. to elute Thymidine, and fresh culture medium was added to continue culturing for 8 h; • 4) cempelin was added to the experimental group at a final concentration of 1 μM, and the control group was added with an equal volume of DMSO for 1 h; • 5) the cells were fixed with PBS buffer containing 3.7% formaldehyde for 10 min; • 6) after 0.2% TritonX-100 permeabilization and 1% BSA blocking, ACA antibody was incubated at room temperature for 1 h; • 7) DAPI was stained for 3 min and then the slides were sealed; • 8) the slides were placed on the DV microscope stage and imaged by a 60×, NA=1.42 lens.

HeLa cells [4] = assay: Real-time live cell imaging of mitosis (mitotic arrest); type: cell-based; details: 1 μM
Method: • 1) Inoculate HeLa cells into 35 mm live cell culture dishes; • 2) transfect plasmid DNA: GFP-tubulin and mCherry-H2B after 24 h (the density of transfected plasmid cells is 70%-80%); • 3) replace with fresh culture medium 6 h after transfection and add 2 mM Thymidine to treat cells for 14-16 h; • 4) wash cells 3 times with PBS preheated at 37° C. to release cells, then replace with fresh culture medium to continue culturing; • 5) turn on the Applied Precision Personal DV microscope and thermostat to stabilize the temperature at 37° C.; • 6) 8-9 h after release, replace the cell culture medium with CO2-independent Medium, add cenpemlin with a final concentration of 1 μM or the same volume of DMSO; • 7) place the cells on the 37° C. thermostat stage of the DV microscope and shoot real-time under a 60×, NA=1.42 lens, taking one frame every 3 min.

[5] = test system: MDA-MB-231 cells (triple negative breast cancer cells); assay: Trypan blue staining of cancer cells after treatment; type: cell-based; details: 1 μM, 24 h
Method: (§1) • 1) HeLa cells (cervical cancer cells), MDA-MB-231 cells (triple negative breast cancer cells) and HepG2 cells (liver cancer cells) were seeded into 6 cm culture dishes; • 2) The small molecule compound cenpemlin or DMSO was added at a final concentration of 1 μM to treat the cells for 24 h; • 3) The cells were digested with trypsin and the cell suspension was taken for trypan blue staining; • 4) The blue-stained cells were observed and counted under an ordinary optical microscope.

[6] = test system: HepG2 cells (liver cancer cells); assay: as above; type: cell-based; details: 1 μM, 24 h
Method: as §1

[7] = test system: HeLa cells (cervical cancer cells); assay: as above; type: cell-based; details: 1 μM, 24 h
Method: as §1

[8] = target: T1, interaction between CENP-M and CENP-L (Homo sapiens, UniProt Q9NSP4); assay: Co-immunoprecipitation of GFP-CENP-M with FLAG-CENP-L from treated HEK293T cells, immunoblot; type: cell-based; details: 1 μM, 1 h, FLAG beads pull-down
T1 construct: expressed in transfected cells; host or cells: HEK293T
T1 sequence (Q9NSP4 whole entry): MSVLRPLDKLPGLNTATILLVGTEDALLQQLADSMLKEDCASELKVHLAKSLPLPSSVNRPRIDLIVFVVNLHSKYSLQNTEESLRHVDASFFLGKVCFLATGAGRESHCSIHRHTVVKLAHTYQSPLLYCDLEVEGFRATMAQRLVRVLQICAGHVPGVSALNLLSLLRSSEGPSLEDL
Method: • 1) Inoculate HEK293T cells into 6 cm culture dishes; • 2) transfect plasmid DNA: GFP-CENP-M and FLAG-CENP-L after 24 h (the density of cells is 70%-80%); • 3) replace with fresh culture medium 4 h after transfection and continue to culture for 24 h; • 4) add cenpemlin with a final concentration of 1 μM or the same volume of DMSO to treat cells for 1 h; • 5) scrape the cells with a cell scraper, collect them in a centrifuge tube, and remove the culture medium by centrifugation at 1,000 rpm; • 6) add cell lysis buffer for ultrasonic disruption, and centrifuge at 12,000 rpm for 10 min; • 7) take the supernatant and incubate with FLAG beads for 4 h; • 8) wash the beads for three times with cell lysis buffer, boil the sample with sample buffer, and then perform electrophoresis and immunoblot analysis.

Row | SMILES | number of cancer cells in the liver of mice (luciferase test) [1] | spindle phenotype after elution (HeLa cells [2]) | time to exit mitosis after elution (HeLa cells [2]) | chromosome alignment in cell mitosis [3] | time after nuclear membrane rupture without entering the late stage (HeLa cells [4]; HeLa) | mitotic progression (delay) (HeLa cells [4]; HeLa GFP-tubulin/mCherry-H2B) | proportion of trypan blue stained cells [5] | proportion of trypan blue stained cells [6] | proportion of trypan blue stained cells [7] | interaction between CENP-M and CENP-L compared with control group [8]
1 | OCC(O)C(O)C(O)C(O)/C=N/Nc1nc(N2CCOCC2)nc(N2CCOCC2)n1 (centres unmarked) [cenpemlin] | significantly reduced | multipolar spindles | 45 min | abnormal chromosome alignment | > 120 min | obvious mitotic delays | increase | increase | increase | weakened
2 | CC(=O)O[C@H]1C(=O)[C@@]2(C)[C@H]([C@H](OC(=O)c3ccccc3)[C@]3(O)C[C@H](OC(=O)[C@H](O)[C@@H](NC(=O)c4ccccc4)c4ccccc4)C(C)=C1C3(C)C)[C@]1(OC(C)=O)CO[C@@H]1C[C@@H]2O [paclitaxel, reference compound] | significantly reduced |  |  |  |  |  |  |  |  | 
